Assay results taken from ChEMBL document CHEMBL1212847, “Synthesis and pharmacology of 1-methoxy analogs of CP-47,497” (Bioorg Med Chem, 2010).

Assays:
Cannabinoid receptor 1 = Cannabinoid receptor 1 (Rattus norvegicus, UniProt P20272); assay: Displacement of [3H]CP-55940 from CB1 receptor in Sprague-Dawley rat brain cortex membranes; assay type: cell membranes, Membrane
Cannabinoid receptor 2 = Cannabinoid receptor 2 (Homo sapiens, UniProt P34972); assay: Displacement of [3H]CP-55940 from human CB2 receptor expressed in CHO cells after 1 hr by liquid scintillation spectrometry analysis; assay type: cell-based
Cannabinoid receptor 2, sequence (P34972 whole entry): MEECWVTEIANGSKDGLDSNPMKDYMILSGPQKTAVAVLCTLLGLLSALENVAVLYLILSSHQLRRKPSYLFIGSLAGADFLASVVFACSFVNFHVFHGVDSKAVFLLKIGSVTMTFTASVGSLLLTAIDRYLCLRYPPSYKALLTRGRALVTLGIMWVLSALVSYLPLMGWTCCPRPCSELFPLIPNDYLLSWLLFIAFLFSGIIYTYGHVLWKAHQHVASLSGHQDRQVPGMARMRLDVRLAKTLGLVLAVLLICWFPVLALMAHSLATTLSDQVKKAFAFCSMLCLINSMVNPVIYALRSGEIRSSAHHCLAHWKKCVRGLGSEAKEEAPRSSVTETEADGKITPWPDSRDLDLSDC

Cannabinoid receptor 1, sequence (P20272 whole entry): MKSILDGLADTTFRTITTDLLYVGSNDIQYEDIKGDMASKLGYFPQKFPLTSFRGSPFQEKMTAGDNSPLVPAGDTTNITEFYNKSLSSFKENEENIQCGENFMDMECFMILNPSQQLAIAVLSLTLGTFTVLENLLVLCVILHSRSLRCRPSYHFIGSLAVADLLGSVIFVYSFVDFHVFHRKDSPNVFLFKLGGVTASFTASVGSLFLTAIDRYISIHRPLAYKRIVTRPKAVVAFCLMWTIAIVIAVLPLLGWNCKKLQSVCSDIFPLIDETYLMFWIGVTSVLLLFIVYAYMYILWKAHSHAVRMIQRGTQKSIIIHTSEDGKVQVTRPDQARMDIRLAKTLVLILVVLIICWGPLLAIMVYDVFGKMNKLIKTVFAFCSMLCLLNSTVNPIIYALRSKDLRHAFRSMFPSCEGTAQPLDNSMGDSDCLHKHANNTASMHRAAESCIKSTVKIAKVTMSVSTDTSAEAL

| Compound | Ki (Cannabinoid receptor 1) [nM] | Ki (Cannabinoid receptor 2) [nM] |
| --- | --- | --- |
| CCCCCCC(C)(C)c1ccc([C@H]2CCC[C@@H](O)C2)c(O)c1 | 9.54 | – |
| CCCCCCC(C)(C)c1ccc([C@H]2CCC[C@@H](O)C2)c(OC)c1 (relative stereo) | > 10000 | 808 |
| CCCCCC(C)(C)c1ccc([C@H]2CCC[C@H](O)C2)c(OC)c1 (relative stereo) | 4120 | 693 |
| CCCCCCC(C)(C)c1ccc([C@H]2CCC[C@H](O)C2)cc1 (relative stereo) | 645 | 178 |
| CCCCCC(C)(C)c1ccc([C@H]2CCC[C@@H](O)C2)c(OC)c1 (relative stereo) | 4410 | 553 |
